Here are results for ten compounds from patent US9284325B2, “Spectinamides as anti-tuberculosis agents” (UNIVERSITY OF TENNESSEE RESEARCH FOUNDATION, priority 2009, dated 2016).

Counter-ions that a name gives are not always drawn. Bounds are passed on as bounds.

One experiment deals with E. coli K12 ΔtolC. The experiment is described as follows: microbe, parasite or virus in culture. The note with it: Escherichia coli, read-out: MIC E. coli K12 ΔtolC. It is filed as cell-based.
Experiment [1] has as its system Burkholderia cepacia ATCC 25416. The experiment is described as follows: MIC determination by microbroth dilution. The format is cell-based. To be noted: ATCC25416, read-out: MIC B. cepcia.
Another experiment deals with M. tuberculosis H37Rv. The experiment is described as follows: MIC determination by microbroth dilution, anti-tuberculosis activity. To be noted: Mycobacterium tuberculosis, H37RV, 168 h; read-out: MIC. The format is cell-based, Mycobacterium tuberculosis.
In another experiment the test system is E. faecalis ATCC 33186. The experiment is described as follows: MIC determination by microbroth dilution. The format is cell-based, Enterococcus faecalis. The note with it: Enterococcus faecalis, ATCC33186. (In general: Broth dilution looks for growth in wells or tubes with falling amounts of substance.)
Experiment [2] relates to Strenotrophomonas maltophilia ATCC 13637. The experiment is described as follows: MIC determination by microbroth dilution. It is filed as cell-based.
In another experiment the test system is B. anthracis Sterne 34F2. Kind of experiment: microbe, parasite or virus in culture. It is filed as cell-based, Bacillus anthracis. The note with it: Bacillus anthracis, STERNE34F2, read-out: MIC B. anthracis 34F2.
In experiment [3] the test system is Proteus vulgaris ATCC 33420. Kind of experiment: MIC determination by microbroth dilution. The format is cell-based. The note with it: ATCC33420.
Experiment [4] has as its system Strep. pyogenes ATCC 700294. Kind of experiment: MIC determination by microbroth dilution. The format is cell-based, Streptococcus pyogenes. To be noted: Streptococcus pyogenes, ATCC700294, read-out: MIC S. pyogenes.
Experiment [5] has as its system Strep. pneumoniae DAW27 or strain R6. Kind of experiment: MIC determination by microbroth dilution. It is filed as cell-based, Streptococcus pneumoniae. To be noted: Streptococcus pneumoniae; Strep. pneumoniae DAW27 or strain R6 (for 1443-1544); read-out: MIC S. pneumoniae.
Experiment [6] has as its system Klebsiella pneumoniae ATCC 33495. The experiment is described as follows: MIC determination by microbroth dilution. It is filed as cell-based. To be noted: ATCC33495.
Experiment [7] deals with Acinetobacter baumannii ATCC 19606. Kind of experiment: MIC determination by microbroth dilution. It is filed as cell-based. To be noted: ATCC19606.
In the next experiment the test system is P. aeruginosa PAO1. Kind of experiment: MIC determination by microbroth dilution. It is filed as cell-based, Pseudomonas aeruginosa. To be noted: Pseudomonas aeruginosa.
Experiment [8] has as its system S. aureus 8325 or strain ATCC 29213. Kind of experiment: MIC determination by microbroth dilution. It is filed as cell-based, Staphylococcus aureus. To be noted: Staphylococcus aureus, ATCC29213; S. aureus 8325 or strain ATCC 29213 (for 1471-1544).
In another experiment the test system is E. coli K12. Kind of experiment: MIC determination by microbroth dilution. The format is cell-based, Escherichia coli. The note with it: Escherichia coli, K12.
Experiment [9] concerns Proteus mirabilis ATCC 25933. Kind of experiment: MIC determination by microbroth dilution. The note with it: ATCC25933. The format is cell-based.

Regarding `CN[C@@H]1[C@H](O)[C@H](NC)C2O[C@]3(O)C(OC2[C@H]1O)O[C@H](C)C[C@H]3NC(=O)Cc1ccc(-c2ccccc2)cn1` (stereo partly drawn) [Compound 1519, 3′-Dihydro-3′-deoxy-4(R)-(5-phenylpyridin-2-yl)acetylamino spectinomycin trihydrobromide], the MIC with E. coli K12 ΔtolC is 12.5 µg/mL; in experiment [1], > 200 µg/mL; with M. tuberculosis H37Rv it was 3.12 µg/mL; against E. faecalis ATCC 33186, 25 µg/mL; in [2], > 200 µg/mL; in the experiment with B. anthracis Sterne 34F2, > 200 µg/mL. The MIC was > 200 µg/mL in experiment [3]; 12.5 µg/mL in experiment [4]; 3.1 µg/mL in experiment [5]; > 200 µg/mL in experiment [6]; > 200 µg/mL in experiment [7]; > 200 µg/mL in the experiment on P. aeruginosa PAO1. Also, the MIC is 100 µg/mL in experiment [8], > 200 µg/mL against E. coli K12 and > 200 µg/mL in experiment [9].

With `CN[C@@H]1[C@H](O)[C@H](NC)C2O[C@]3(O)C(OC2[C@H]1O)O[C@H](C)C[C@H]3NC(=O)Cc1ccc(C)cc1` (stereo partly drawn) [Compound 1399, 3′-Dihydro-3′-deoxy-4(R)-p-tolylacetylamino spectinomycin Dihydrochloride], the MIC is 100 µg/mL in the experiment on E. coli K12 ΔtolC; > 200 µg/mL in experiment [1]; 6.1 µg/mL in the experiment on M. tuberculosis H37Rv; 200 µg/mL with E. faecalis ATCC 33186; > 200 µg/mL in experiment [2]; 100 µg/mL in the experiment with B. anthracis Sterne 34F2. For the same compound, the MIC was > 200 µg/mL in experiment [3]; 25 µg/mL in experiment [4]; 25 µg/mL in experiment [5]; > 200 µg/mL in experiment [6]; > 200 µg/mL in experiment [7]; 100 µg/mL in the experiment with P. aeruginosa PAO1. Also, the MIC in [8] is 50 µg/mL; in the experiment on E. coli K12, > 200 µg/mL; in experiment [9], > 200 µg/mL.

Take `CN[C@@H]1[C@H](O)[C@H](NC)C2O[C@]3(O)C(OC2[C@H]1O)O[C@H](C)C[C@H]3NC(=O)CCN` (stereo partly drawn) [Compound 1469, 3′-Dihydro-3′-deoxy-4(R)-(3-amino)propanoylamino spectinomycin Trihydrochloride]: the MIC was 100 µg/mL in the experiment on E. coli K12 ΔtolC; > 200 µg/mL in experiment [1]; 200 µg/mL in the experiment with M. tuberculosis H37Rv; 50 µg/mL in the experiment with E. faecalis ATCC 33186; 25 µg/mL in experiment [2]; 50 µg/mL in the experiment on B. anthracis Sterne 34F2. Further, the MIC in experiment [3] was > 200 µg/mL; in experiment [4] it was 100 µg/mL; in [5], 50 µg/mL; in [6] it was > 200 µg/mL; in experiment [7], > 200 µg/mL; against P. aeruginosa PAO1, > 200 µg/mL. In addition, the MIC (in experiment [8]; in the experiment on E. coli K12; in experiment [9]) was > 200 µg/mL throughout.

Consider `CN[C@@H]1[C@H](O)[C@H](NC)C2O[C@]3(O)C(OC2[C@H]1O)O[C@H](C)C[C@H]3NC(=O)Cc1ccc(Br)cn1` (stereo partly drawn) [Compound 1516, 3′-Dihydro-3′-deoxy-4(R)-(5-bromopyridin-2-yl)acetylamino spectinomycin trihydrobromide], for which the MIC in the experiment with E. coli K12 ΔtolC was 12.5 µg/mL; in experiment [1], > 200 µg/mL; in the experiment with M. tuberculosis H37Rv, 1.56 µg/mL; in the experiment on E. faecalis ATCC 33186 it was 100 µg/mL; in experiment [2], > 200 µg/mL; in the experiment on B. anthracis Sterne 34F2, > 200 µg/mL. Besides, the MIC in experiment [3] is > 200 µg/mL; in [4], 6.25 µg/mL; in [5], 6.25 µg/mL; in experiment [6] it was > 200 µg/mL; in experiment [7], > 200 µg/mL; against P. aeruginosa PAO1 it was > 200 µg/mL. For the same compound, the values for the MIC (in experiment [8]; against E. coli K12; in [9]) were 50 µg/mL, > 200 µg/mL and > 200 µg/mL, respectively.

Turning to `CN[C@@H]1[C@H](O)[C@H](NC)C2O[C@]3(O)C(OC2[C@H]1O)O[C@H](C)C[C@H]3NC(=O)Cc1cccc(C)c1` (stereo partly drawn) [Compound 1412, 3′-Dihydro-3′-deoxy-4(R)-m-tolylacetylamino spectinomycin Dihydrochloride], the MIC was 200 µg/mL in the experiment on E. coli K12 ΔtolC; > 200 µg/mL in experiment [1]; 25 µg/mL in the experiment on M. tuberculosis H37Rv; 200 µg/mL in the experiment with E. faecalis ATCC 33186; > 200 µg/mL in experiment [2]; 100 µg/mL in the experiment on B. anthracis Sterne 34F2. For the same compound, the MIC in experiment [3] was > 200 µg/mL; in [4], 25 µg/mL; in experiment [5], 25 µg/mL; in [6], > 200 µg/mL; in experiment [7], > 200 µg/mL; with P. aeruginosa PAO1, 100 µg/mL. The MIC is 50 µg/mL in [8], > 200 µg/mL with E. coli K12 and > 200 µg/mL in [9].

Turning to `CN[C@@H]1[C@H](O)[C@H](NC)C2O[C@]3(O)C(OC2[C@H]1O)O[C@H](C)C[C@H]3NC(=O)[C@@H](O)CCN` (stereo partly drawn) [Compound 1493, 3′-Dihydro-3′-deoxy-4(R)-(2(S)-4-amino-2-hydroxy)butanoylamino spectinomycin trihydrochloride], the MIC in the experiment on E. coli K12 ΔtolC was 25 µg/mL; in experiment [1] it was > 200 µg/mL; in the experiment with M. tuberculosis H37Rv it was > 200 µg/mL; in the experiment with E. faecalis ATCC 33186, > 200 µg/mL; in experiment [2], > 200 µg/mL; with B. anthracis Sterne 34F2 it was > 200 µg/mL. Besides, the MIC in [3] is 100 µg/mL; in [4], 50 µg/mL; in experiment [5] it was 50 µg/mL; in [6] it was > 200 µg/mL; in experiment [7] it was > 200 µg/mL; against P. aeruginosa PAO1 it was > 200 µg/mL. For the same compound, the MIC in experiment [8] was > 200 µg/mL; in the experiment with E. coli K12 it was 100 µg/mL; in experiment [9] it was > 200 µg/mL.

With `CN[C@@H]1[C@H](O)[C@H](NC)C2O[C@]3(O)C(OC2[C@H]1O)O[C@H](C)C[C@H]3NC(=O)Cc1csc(Nc2ccc(F)cc2)n1` (stereo partly drawn) [Compound 1538, 3′-Dihydro-3′-deoxy-4(R)-(2-((4-fluorophenyl)amino)thiazol-4-yl)acetylamino spectinomycin tribromide], the MIC was 25 µg/mL in the experiment with E. coli K12 ΔtolC; > 200 µg/mL in [1]; 6.25 µg/mL in the experiment on M. tuberculosis H37Rv; 25 µg/mL against E. faecalis ATCC 33186; > 200 µg/mL in experiment [2]; > 200 µg/mL with B. anthracis Sterne 34F2. In addition, the MIC in experiment [3] is > 200 µg/mL; in experiment [4], 6.25 µg/mL; in experiment [5], 3.1 µg/mL; in experiment [6] it was > 200 µg/mL; in experiment [7], > 200 µg/mL; in the experiment with P. aeruginosa PAO1, 200 µg/mL. Also, the MIC in experiment [8] is 100 µg/mL; against E. coli K12, > 200 µg/mL; in [9], > 200 µg/mL.

For `CN[C@@H]1[C@H](O)[C@H](NC)C2O[C@]3(O)C(OC2[C@H]1O)O[C@H](C)C[C@H]3NC(=O)Cc1ccc(-c2ccc(F)cc2)cn1` (stereo partly drawn) [Compound 1542, 3′-Dihydro-3′-deoxy-4(R)-(5-(4-fluorophenyl)pyridin-2-yl)acetylamino spectinomycin tribromide], the MIC in the experiment on E. coli K12 ΔtolC is 12.5 µg/mL; in experiment [1], > 200 µg/mL; in the experiment on M. tuberculosis H37Rv, 3.12 µg/mL; against E. faecalis ATCC 33186 it was 25 µg/mL; in experiment [2], > 200 µg/mL; in the experiment with B. anthracis Sterne 34F2, > 200 µg/mL. Moreover, the MIC in [3] was > 200 µg/mL; in experiment [4], 6.25 µg/mL; in experiment [5], 3.1 µg/mL; in experiment [6], > 200 µg/mL; in [7], > 200 µg/mL; in the experiment with P. aeruginosa PAO1, > 200 µg/mL. The MIC in experiment [8] was 100 µg/mL; in the experiment on E. coli K12, > 200 µg/mL; in experiment [9], > 200 µg/mL.

Regarding `CN[C@@H]1[C@H](O)[C@H](NC)C2O[C@]3(O)C(OC2[C@@H]1O)O[C@H](C)C[C@H]3NC(=O)Cc1nc2ccccc2s1` (stereo partly drawn) [Compound 1491, 3′-Dihydro-3′-deoxy-4(R)-(benzothiazol-2-yl)acetylamino spectinomycin trihydrobromide], the MIC in the experiment with E. coli K12 ΔtolC was 12.5 µg/mL; in [1], > 200 µg/mL; with M. tuberculosis H37Rv, 1.6 µg/mL; in the experiment on E. faecalis ATCC 33186 it was 25 µg/mL; in [2] it was > 200 µg/mL; with B. anthracis Sterne 34F2 it was > 200 µg/mL. Also, the MIC was > 200 µg/mL in experiment [3]; 12.5 µg/mL in experiment [4]; 6.25 µg/mL in [5]; > 200 µg/mL in experiment [6]; > 200 µg/mL in experiment [7]; > 200 µg/mL in the experiment with P. aeruginosa PAO1. Further, the results for the MIC (in experiment [8]; with E. coli K12; in experiment [9]) were 100 µg/mL, 200 µg/mL and > 200 µg/mL, respectively.

Consider `CN[C@@H]1[C@H](O)[C@H](NC)C2O[C@]3(O)C(OC2[C@H]1O)O[C@H](C)C[C@H]3NC(=O)[C@@H](C)N` (stereo partly drawn) [Compound 1501, 3′-Dihydro-3′-deoxy-4(R)[2(R)-amino]propanoylamino spectinomycin Trihydrochloride], for which the MIC (with E. coli K12 ΔtolC; in experiment [1]; with M. tuberculosis H37Rv; in the experiment with E. faecalis ATCC 33186; in [2]; with B. anthracis Sterne 34F2) was > 200 µg/mL throughout. Also, the MIC (in [3]; in experiment [4]; in experiment [5]; in [6]; in experiment [7]; with P. aeruginosa PAO1) was > 200 µg/mL throughout. Besides, the MIC (in [8]; against E. coli K12; in experiment [9]) was > 200 µg/mL throughout.
